Entries after “also recorded” stand apart in the source; their conditions may differ.
Tests used:
human erythrocytes [1] = assay: ATP release from human erythrocytes (luciferin-luciferase assay); assay type: cell-based; settings: for ATP release on incubation with activator: activator of Gs or Gi alone; for Mas7-induced ATP release in the presence of insulin: MAS7 10 μM, insulin 1 μM pre-incubation; for ATP release in response to Gs/Gi activation or reduced O2 tension, in the presence of insulin: insulin at concentrations reported in plasma of humans with prediabetes
Method: (§1) Erythrocytes (20% hct) were incubated with Mastoparan 7 (10 μM) or its vehicle in the presence or absence of 1 uM insulin. ATP release from erythrocytes was measured at 5 minute intervals using the luciferan/luciferase assay. In separate studies, erythrocytes (50% hct) were incubated with vehicle, 10 uM cilostazol, 100 μM cilostazol, […], 3 uM insulin, and/or 10 uM Mastoparan 7 for determination of cAMP concentration. At timed intervals, 4 mL of ice cold ethanol containing 1 mM HCl was added to 1 mL of RBC suspension. After centrifugation at 14,000×g at 4° C. for 10 min., the supernatant was dried under vacuum. Samples were resuspended in assay buffer and cAMP concentration was determined in duplicate by EIA.
(§2) Protocol A: Washed erythrocytes are incubated with insulin (0.1 nM-1 μM, Humalog®), or its vehicle (saline) for 30 min [28, 29, 47, 60]. Erythrocytes are incubated with either iloprost (1 μM), isoproterenol (10 μM) (receptor-mediated activators of Gs) or mastoparan 7 (MAS7, 10 μM) (a direct activator of Gi) or their vehicle (saline). After 15 min, cAMP accumulation and ATP release will be determined.
Protocol C: To determine effects of direct activation of adenylyl cyclase and active cAMP analogs on ATP release from erythrocytes in the presence of insulin, washed erythrocytes are incubated with insulin (0.1 nM-1 μM) or its vehicle (saline). After 30 min, the cells are incubated with either the non-selective activator of adenylyl cyclase (AC) activity, forskolin (1 to 10 μM), or one of two active cAMP analogs that are resistant to degradation, SpcAMP (10 to 100 μM) or 8-bromo-cAMP (10 to 100 μM). ATP release will be measured at 5, 10 and 15 min after addition of forskolin or the active cAMP analogs. Controls: To ensure the effects of forskolin or the cAMP analogs are not due to effects of vehicle or time, identical experiments are conducted using their vehicles, N,Ndimethylformamide (DMF) or saline, respectively, in lieu of the active agent. Total intracellular ATP and free hemoglobin, a measurement of erythrocyte lysis, is determined.
(§3) Measurement of ATP: ATP was measured using the luciferin-luciferase assay. A 200 μL sample of an erythrocyte suspension was injected into a cuvette containing 100 μL of 10 mg/ml crude firefly tail extract and 100 μL of a 0.5 mg/ml solution of D-luciferin. The light emitted from the reaction of ATP with the crude firefly tail extract was measured using a luminometer designed to detect a wavelength of 565 nm. The peak light emitted was compared to an ATP standard curve generated on the day of the experiment.
Exposure of Erythrocytes to Reduced Oxygen Tension: Washed erythrocytes were diluted in Krebs buffer containing bicarbonate (4.7 KCl, 2.0 mM CaCl2, 140.5 mM NaCl, 1.2 mM MgSO4) and equilibrated for 30 minutes in a tonometer (15% O2, 5% CO2, balance N2) (normoxia). Erythrocytes were then exposed to hypoxia by changing the equilibrating gas to 5% O2, 5% CO2, balance N2. ATP released from the erythrocytes as well as pH and blood gas tensions were determined at 5, 10 and 15 min after exposure to the various gas tensions. In separate studies, samples were collected into acidified ethanol for cAMP measurement.

human erythrocytes [2] = assay: cAMP concentration in human erythrocytes (EIA); assay type: cell-based; settings: for cAMP production / synthesis on incubation with activator: activator of Gs or Gi alone; for Mas7-induced cAMP accumulation in the presence of insulin: MAS7 10 μM, insulin pre-incubation; for cAMP accumulation in response to Gs/Gi activation or reduced O2 tension, in the presence of insulin: insulin at concentrations reported in plasma of humans with prediabetes
Method: as §1, §2
After 30 min, the cells were incubated with either iloprost (1 μM), isoproterenol (10 μM), MAS7 (10 μM) or exposed to reduce O2 tension and cAMP accumulation and ATP release was determined. Control experiments: Identical experiments were performed with the vehicles for the various inhibitors. […] The concentrations chosen for rolipram and sildenafil PDE are those reported to be specific for the PDEs indicated.
Measurement of cAMP: 1 ml of erythrocyte suspension was added to 4 ml of ice cold ethanol containing 1 mM HCl and the mixture was centrifuged at 21,000×g for 10 minutes at 4° C. The supernatant was removed and stored overnight at −20° C. to precipitate remaining proteins. Samples were centrifuged a second time at 3,700×g for 10 minutes at 4° C. The supernatant was removed and dried under vacuum centrifugation. Concentrations of cAMP were determined by EIA.

[3] = system: RBCs derived from humans having type 2 diabetes; assay: MAS7-induced ATP release by RBCs from humans with type 2 diabetes; assay type: cell-based, human; settings: type 2 diabetic RBCs, stimulation via the Gi pathway (MAS7), compared with RBCs of healthy individuals, FIG. 7
Method: as §1, §3

PDE4 = settings: reported in reference [54]; cited from earlier work
human erythrocytes [4] = assay: Total intracellular ATP of erythrocytes; assay type: cell-based; settings: human erythrocytes pre-incubated with insulin 1 μM
Method: Measurement of Total Intracellular ATP: A known number of erythrocytes was lysed in distilled water at room temperature. ATP in the lysate, diluted 8,000 fold, was measured using ATP assay and the values normalized to ATP concentration per erythrocyte.

Compound: CC(C)NCC(O)c1ccc(O)c(O)c1 (stereo not drawn) [isoproterenol, reference compound]
- ATP release on incubation with activator (human erythrocytes [1]): stimulate
- cAMP production / synthesis on incubation with activator (human erythrocytes [2]): stimulate

Compound: O=C1CCc2cc(OCCCCc3nnnn3C3CCCCC3)ccc2N1 [cilostazol]
- MAS7-induced ATP release by diabetic RBCs treated with cilostazol [3]: normal levels of ATP
- MAS7-induced ATP release by diabetic RBCs treated with cilostazol ([3]; listed as CILO): not significantly different from the levels released by RBCs of healthy individuals
- concentrations inhibiting PDE4 activity relative to those used here (PDE4): ten-fold greater
- iloprost-induced cAMP accumulation after cilostazol pre-treatment (human erythrocytes [2]; FIG. 11): concentration-dependent increases
- basal cAMP levels (human erythrocytes [2]; in the presence of cilostazol): increased

Compound: Mastoparan 7 [reference compound]
- ATP release on incubation with activator (human erythrocytes [1]): ATP release
- ATP release on incubation with activator (human erythrocytes [1]; listed as MAS7): stimulate
- cAMP production / synthesis on incubation with activator (human erythrocytes [2]): increased cAMP production
- cAMP production / synthesis on incubation with activator (human erythrocytes [2]; listed as MAS7): stimulate

Compound: CC#CCC(C)[C@H](O)/C=C/[C@@H]1[C@H]2C/C(=C/CCCC(=O)O)C[C@H]2C[C@H]1O (stereo partly drawn) [iloprost, reference compound]
- ATP release on incubation with activator (human erythrocytes [1]): stimulate
- cAMP production / synthesis on incubation with activator (human erythrocytes [2]): stimulate

Compound: COc1ccc(C2CNC(=O)C2)cc1OC1CCCC1 (stereo not drawn) [rolipram, reference compound]
- iloprost-induced cAMP accumulation with rolipram (human erythrocytes [2]; rolipram 30 μM, n=6): no effect

Compound: insulin: insulin incubated with erythrocytes; Humalog or regular human insulin in the protocols
- Mas7-induced ATP release in the presence of insulin (human erythrocytes [1]; FIG. 9): inhibit; also recorded: decline; also recorded: decreases; also recorded: reduces; also recorded: attenuated
- Mas7-induced ATP release in the presence of insulin (human erythrocytes [1]; FIG. 9, listed as Insulin): reduces
- ATP release in response to Gs/Gi activation or reduced O2 tension, in the presence of insulin (human erythrocytes [1]): inhibits; also recorded: attenuates
- ATP release in response to Gs/Gi activation or reduced O2 tension, in the presence of insulin (human erythrocytes [1]; listed as Insulin): attenuates
- ATP release in response to active cAMP analogs resistant to hydrolysis by PDEs, in the presence of insulin (human erythrocytes [1]; insulin pretreatment): no effect
- Mas7-induced cAMP accumulation in the presence of insulin (human erythrocytes [2]; FIG. 8): greater at lower (nM) insulin concentrations; also recorded: decline; also recorded: decreases; also recorded: reduces; also recorded: inhibition
- Mas7-induced cAMP accumulation in the presence of insulin (human erythrocytes [2]; FIG. 8, listed as Insulin): reduces
- cAMP accumulation in response to Gs/Gi activation or reduced O2 tension, in the presence of insulin (human erythrocytes [2]): inhibited; also recorded: limit; also recorded: decreases
- cAMP accumulation in response to Gs/Gi activation or reduced O2 tension, in the presence of insulin (human erythrocytes [2]; listed as Insulin): decreases
- total ATP content (human erythrocytes [4]): absence of changes

Reference: patent US8084221B2, “Method of screening for a drug candidate that increases ATP release from RBCs stimulated via the Gs or Gi pathway” (Saint Louis University, priority 2006, dated 2011)
